Measured values reported in patent US5217997A, “Use of L-arginine in the treatment of hypertension and other vascular disorders” (priority 1992, dated 1993).
“Also recorded” adds a separate entry of the source. Where two headings read alike, the source gives them in different places.

Legend:
[1] = system: spontaneous hypertensive rats; experiment: Systolic blood pressure in 7-week-old SHR, heme vs. arginine component and heme oxygenase inhibitor (Table 3); format: in vivo, rat; settings: for reduction of blood pressure: "same dose (15 mg/kg body weight)", control increased by 7.7 mmHg; for Systolic blood pressure, after treatment: n=5, 4 days, heme-L-arginate = 15 mg hemin + 16 mg L-arginine per kg, hemin 15, L-arginine 16, ZnDPBG 7 mg/kg, 23 hours after last injection, *p<0.005 vs control 166.0±2.7; for Systolic blood pressure, after treatment / Systolic blood pressure, before treatment: ±SD; for Systolic blood pressure, before treatment: n=5, baseline
Procedure: Applicants further examined whether the effect is due to heme or to the arginine component of heme arginate. In separate experiments, applicants treated 7-week-old spontaneous hypertensive rats with heme-L-arginate, hemin alone and L-arginine alone at the same dose (15 mg/kg body weight). […] At the same period, blood pressure in control spontaneous hypertensive rats increased by 7.7 mmHg.
Systolic blood pressure was measured by tail cuff pletysmograph before and 23 hours after the last injection. Results are the same ±SD, n=5 in each group; significance from control spontaneous hypertensive rats after 4 days of treatment with the vehicle (166.0±2.7), *p<0.005.

[2] = system: spontaneous hypertensive rats; experiment: Tail blood pressure of 7-week-old spontaneous hypertensive rats after L- or D-arginine hydrochloride (Example 1); format: in vivo, rat
Procedure: (§1) Male spontaneous hypertensive rats and Wistar Kyoto rats were purchased from Charles River (Wilmington, Mass.) and were fed and housed under identical conditions for at least five days before use. The rats were caged in groups of three with food and water ad libitum under an artificial light-dark cycle of twelve hours.
(§2) L- and D-arginine hydrochloride were obtained from Aldrich (Milwaukee, Wis.). Forty-five-day-old spontaneous hypertensive rats were injected with L-arginine hydrochloride, 5, 16, 50, 80, 100 and 500 mg/kg body weight, or D-arginine-hydrochloride, 80 and 100 mg/kg body weight, intraperitoneally,in a final volume of 1.0 ml buffered saline for four consecutive days. The control spontaneous hypertensive rats and Wistar Kyoto rats were injected with saline. Forty-five day old Wistar Kyoto strain rats were injected with 50 mg/kg body weight of L-arginine hydrochloride for four days. Each group consisted of four or five experimental animals. Blood pressure from the tail was measured before the first injection and twenty-four hours after the last arginine administration. Blood pressure was measured with anesthesia, using a pletysmograph.
(§3) Results are expressed as the means ±SEM. A two-way analysis of variance was performed to compare blood values between control, L-arginine and D-arginine treated spontaneous hypertensive rats. Specific differences between groups were tested by the Newman-Keuls test. The null hypothesis was rejected when the p value was less than 0.05.
(§4) The blood pressure of 7-week-old spontaneous hypertensive rats and Wistar Kyoto rats was monitored before and after administration of L- and D-arginine. […] At a dose as low as 16 mg/kg body weight, L-arginine lowered blood pressure by 10 mm Hg […].

[3] = system: Wistar Kyoto rats; experiment: Tail blood pressure of age-matched Wistar Kyoto rats after L- or D-arginine hydrochloride (Example 1); format: in vivo, rat; settings: for effect on blood pressure: age-matched normotensive Wistar Kyoto rats
Procedure: as §1, §2, §3, §4
For example, blood pressure of 7-week-old Wistar Kyoto rats remained unchanged following four days of treatment with L-arginine (50 mg/kg body weight), 122.3±1.3 mm Hg vs. 124.5±1.7 mm Hg for control and treated, respectively, n=3.

[4] = system: anesthetized rabbit; settings: cited from earlier work
[5] = system: renal cytochrome P-450; settings: in vivo; cited from earlier work
[6] = system: spontaneous hypertensive rats; settings: young SHR; cited from earlier work

In the case of Hemin, the “reduction of blood pressure” value [1] is reported as 14.3 mmHg, the “Systolic blood pressure, after treatment” value [1] is reported as 142.2 ± 2.4 mmHg and the “Systolic blood pressure, before treatment” value [1] is reported as 156.5 ± 3.3 mmHg.

In the case of `N=C(N)NCCC[C@@H](N)C(=O)O` [D-arginine], the “effect on blood pressure” value ([2]; 80 and 100 mg/kg body weight, four days, 7-week-old SHR) is reported as “did not effect the blood pressure; also recorded: had no effect on blood pressure”, the “effect on blood pressure” value ([2]; concentrations lower than 80 mg/kg body weight, SHR) is reported as “did not alter blood pressure” and the “effect on blood pressure” value [3] is reported as “Neither L-arginine nor D-arginine had any effect on blood pressure”.

For `N=C(N)NCCC[C@H](N)C(=O)O` [L-arginine, 2-amino-5-guanidinovaleric acid], the “decrease in blood pressure” value ([2]; 16 mg/kg body weight i.p., four consecutive days, 7-week-old SHR) was 10 mm Hg, the “maximal effect, decrease in blood pressure” value ([2]; 100 mg/kg body weight (maximal dose) i.p., four days, 7-week-old SHR) was 30 mm Hg and the “effect on blood pressure” value ([2]; 5-500 mg/kg i.p., four days, 7-week-old SHR) was “dose-dependent decrease in blood pressure”. The “overall reduction of blood pressure” value ([2]; at the maximal dose, young SHR) was 20%, the “effect on blood pressure of higher doses” value ([2]; doses higher than 100 mg/kg, 7-week-old SHR) was “did not lower blood pressure further” and the “effect on the inhibition of N-monomethyl-L-arginine” value ([4]; L-arginine administration) was “abolished the inhibition of N-monomethyl-L-arginine within fifteen minutes”. The “reduction of blood pressure” value [1] was 9.7 mmHg, the “Systolic blood pressure, after treatment” value [1] was 144.4 ± 3.0 mmHg and the “Systolic blood pressure, before treatment” value [1] was 154.1 ± 4.5 mmHg. For the same molecule, the “blood pressure, treated” value ([3]; 50 mg/kg body weight, four days, 7-week-old WKY, n=3, ±SEM, control 122.3±1.3) was 124.5±1.7 mm Hg and the “effect on blood pressure” value [3] was “Neither L-arginine nor D-arginine had any effect on blood pressure; also recorded: no effect was documented in normotensive rats”.

For `CN=C(N)NCCC[C@H](N)C(=O)O` [N-monomethyl-L-arginine], the “effect on mean arterial blood pressure” value [4] is given as “dose-dependent increase in mean arterial blood pressure”.

With “Zn-2,4-deuteropophyrin IX bis glycol [ZnDPBG]” the “effect on blood pressure” value ([1]; inhibitor alone) was “did not have any effect on blood pressure”, the “Systolic blood pressure, after treatment” value [1] was 169.1 ± 2.5 mmHg and the “Systolic blood pressure, before treatment” value [1] was 154.0 ± 4.0 mmHg.

In the case of `[Cl][Sn][Cl]` [SnCl2], the “effect on renal cytochrome P-450” value [5] is listed as “depletion of renal cytochrome P-450” and the “effect on blood pressure” value [6] is listed as “marked decrease in blood pressure”.
